{
  "source": "paper PMC7143261",
  "about": "(Foods, 2020)",
  "key": {"in vivo": {"experiment": "in vivo", "conditions": "Sprague Dawley, rat, plasma, po, 50 ug/kg"}, "[1]": {"experiment": "Plasmatic serotonin after treatment (ELISA)", "format": "in vivo, Sprague Dawley rats", "conditions": "90 min after oral 50 µg melatonin/kg"}, "[2]": {"experiment": "Plasmatic antioxidant capacity by FRAP after treatment", "format": "in vivo, Sprague Dawley rats", "conditions": "90 min after oral 50 µg melatonin/kg", "description": "(§1) Phytochemicals and metabolites were isolated using SPE.\nThe plasma samples were also used to assess the reducing antioxidant potential using the FRAP assay, as previously described. Briefly, 300 μL of a working FRAP reagent [acetate buffer 0.3 M pH 3.6, 10 mM TPTZ in 40 mM HCl and 20 mM FeCl3·6H2O (10:1:1) (v/v/v)] were tempered to 37 °C, and then 10 μL of plasma samples were added. The absorbance was taken at 593 nm against reagent blank after 10 min. FRAP values were calculated and reported as µM Trolox equivalents (µM TE)."}, "[3]": {"experiment": "Plasma total phenolic compounds (Folin-Ciocalteu) after treatment", "format": "in vivo, Sprague Dawley rats", "conditions": "90 min posttreatment, 50 µg melatonin/kg", "description": "as §1\nSamples (10 μL) were added to 150 μL of Folin-Ciocalteu reagent (diluted 1:15, v/v in Milli-Q water). After exactly 3 min, 20% Na2CO3 (50 μL) was added to each well. After 120 min at room temperature, the absorbance of the blue complex was measured at 760 nm using a microplate reader. The concentration of total phenolic compounds was expressed as mg GAE/mL."}, "[4]": {"conditions": "cited from earlier work"}, "[5]": {"experiment": "Bioavailability study: plasmatic melatonin 90 min after treatment (ELISA)", "conditions": "90 min after oral 50 µg synthetic melatonin/kg"}, "[6]": {"experiment": "Plasmatic antioxidant capacity by ORAC after treatment", "format": "in vivo, Sprague Dawley rats", "conditions": "90 min after oral 50 µg synthetic melatonin/kg", "description": "as §1\nThe above plasma samples were used to determine the radical scavenging activity via the ORAC method using fluorescein as a fluorescence probe. The assay was performed at 37 °C in 75 mM phosphate buffer (pH 7.4). The reaction mixture (200 μL) contained fluorescein (70 nM), 2,2-azobis (2-methyl-propionamidine)-dihydrochloride (12 mM), and samples (Trolox or samples). Fluorescence was read at 485/520 nm, excitation/emission, respectively. Black 96-well untreated microplates (PS Balck, Porvair, Leatherhead, UK) were used. The fluorescence signal was measured every minute for 80 min after automatic shaking. All reaction mixtures were prepared in triplicate, running them at least three times independently. Fluorescence was normalized to the oxidation control (phosphate buffer) and stability control (no antioxidant). The ORAC values were expressed as mM Trolox equivalents (mM TE) according to the protocol previously described."}, "[7]": {"experiment": "Pharmacokinetic study of plasma melatonin after single oral dose of lentil sprouts extract"}, "[8]": {"conditions": "Sprague Dawley, rat, plasma, po, 50 ug/kg"}, "[9]": {"conditions": "oral lentil sprouts, 50 µg melatonin/kg"}},
  "data": [
    {"smiles": "COc1ccc2[nH]cc(CCNC(C)=O)c2c1", "note": "[melatonin, N-acetyl-5-methoxytryptamine]", "values": [
      {"measurement": "Cmax", "setting": "in vivo", "result": "0.0454 ± 0.0035", "unit": "ng/mL"},
      {"measurement": "Tmax", "setting": "in vivo", "result": 1.5, "unit": "h"},
      {"measurement": "enhancement of plasmatic serotonin concentration in contrast to the Fasting group", "setting": "[1]", "result": 2.7, "unit": "fold"},
      {"measurement": "increase of plasmatic antioxidant capacity (FRAP)", "setting": "[2]", "result": 4, "unit": "%"},
      {"measurement": "change of TPC concentration in plasma", "setting": "[3]", "result": "nonsignificant"},
      {"measurement": "time of absorption in the gastrointestinal tract post-oral administration", "setting": "[4]", "result": 45, "unit": "min"},
      {"measurement": "plasmatic melatonin concentration lower than that of the Lentil Sprouts group", "setting": "[5]", "result": 22, "unit": "%"},
      {"measurement": "increment of plasmatic antioxidant capacity (ORAC) vs the fasting group", "setting": "[6]", "result": 32, "unit": "%"},
      {"measurement": "half-life", "setting": "[7]; Sprague Dawley, rat, in vivo, po, 50 ug/kg", "result": "1.82 ± 0.217", "unit": "h"},
      {"measurement": "CL/F", "setting": "[7]; [8]", "result": 330, "unit": "L/h/kg"},
      {"measurement": "half-life", "setting": "[7]; [8]", "result": "~1.67", "unit": "h"},
      {"measurement": "k el", "setting": "[7]; [8]", "result": 0.000108, "unit": "s⁻¹"},
      {"measurement": "MRT inf", "setting": "[7]; Sprague Dawley, rat, plasma, po, 50 ug/kg, MRT 0-∞, oral lentil sprouts, 50 µg melatonin/kg", "result": "~3.33", "unit": "h"},
      {"measurement": "time of maximum plasma melatonin concentration postadministration", "setting": "[7]; oral lentil sprouts extract, 50 µg melatonin/kg", "result": 1.5, "unit": "h"},
      {"measurement": "AUC 0-t /dose", "setting": "[7]; [9]", "result": "131.2 ± 19.3 (pg/mL min)/(μg/kg)"},
      {"measurement": "AUC 0-∞", "setting": "[7]; [9]", "result": "9381 ± 2008", "unit": "pg·min/mL"},
      {"measurement": "AUMC 0-∞", "setting": "[7]; [9]", "result": "1897356 ± 589030", "unit": "pg/mL min^2"},
      {"measurement": "Cl/F", "setting": "[7]; [9]", "result": "0.33 ± 0.07 (μg/kg)/(pg/mL)/h"},
      {"measurement": "MRT 0-∞", "setting": "[7]; [9]", "result": "3.323 ± 0.33", "unit": "h"},
      {"measurement": "VD/F", "setting": "[7]; [9]", "result": "0.85 ± 0.08 (μg/kg)/(pg/mL)"},
      {"measurement": "volume of distribution (VD/F)", "setting": "[7]; [9]", "result": 0.85, "unit": "L/g"},
      {"measurement": "AUC 0-t", "setting": "[7]; oral lentil sprouts, 50 µg melatonin/kg, 0-240 min", "result": "6560 ± 963", "unit": "pg·min/mL"}
    ]}
  ]
}
